Earlier results, collected in Sander's compilation of Henry's law constants (doi:10.1021/je049693f).
Several values for one entry are separate records, joined by “and”; a condition that tells them apart may be missing. Equal entries are not always repeated.

Test: Henry solubility constant Hcp at 298.15 K (mol/(m3 Pa))
Settings: reference: Shen and Wania (2005); cited value

Compound | Henry solubility constant Hcp
Clc1ccc(C(c2ccc(Cl)cc2)C(Cl)(Cl)Cl)cc1 [1,1,1-trichloro-2,2-bis-(4-chlorophenyl)-ethane] | 0.91
Clc1ccc(C(c2ccc(Cl)cc2)C(Cl)Cl)cc1 [1,1-dichloro-2,2-bis-(4-chlorophenyl)-ethane] | 1.5 and 2
ClC(Cl)=C(c1ccc(Cl)cc1)c1ccc(Cl)cc1 [1,1-dichloro-2,2-bis-(4-chlorophenyl)-ethene] | 0.24
ClC1=C(Cl)[C@]2(Cl)[C@H]3[C@H]([C@@H]4C=C[C@H]3C4)[C@@]1(Cl)C2(Cl)Cl [aldrin] | 0.067 and 0.043
ClC1=C(Cl)[C@]2(Cl)[C@@H]3[C@@H](Cl)[C@@H](Cl)C[C@@H]3[C@@]1(Cl)C2(Cl)Cl [cis-chlordane] | 0.17 and 0.18
ClC1=C(Cl)[C@]2(Cl)[C@@H]3[C@@H]4C[C@@H]([C@H]5O[C@@H]45)[C@@H]3[C@@]1(Cl)C2(Cl)Cl [dieldrin] | 1 and 0.91
ClC1=C(Cl)[C@]2(Cl)[C@@H]3[C@H]4C[C@H]([C@@H]5O[C@H]45)[C@@H]3[C@@]1(Cl)C2(Cl)Cl [endrin] | 1.6 and 0.91
ClC1=C(Cl)C2(Cl)C3C(Cl)C=CC3C1(Cl)C2(Cl)Cl (stereo not given) [heptachlor] | 0.033 and 0.026
ClC1=C(Cl)C2(Cl)C3C4OC4C(Cl)C3C1(Cl)C2(Cl)Cl (stereo not given) [heptachlorepoxide] | 0.48 and 0.59
ClC1=C(Cl)[C@]2(Cl)[C@H]3[C@H](Cl)[C@@H](Cl)C[C@H]3[C@@]1(Cl)C2(Cl)Cl [trans-chlordane] | 0.17 and 0.15
